According to a melting point compilation (Tetko et al.; mined from patent text by program, amines drawn as free bases though some values may be those of a salt):

| SMILES | melting point |
| --- | --- |
| Cc1nc(CC2CCN(c3ccccc3)CC2)nc(C(=O)NCC(=O)O)c1O | 141 °C |
| CCOC(=O)CNC(=O)c1nnc2ccc(NCCCN3CCC(OC(c4ccccc4)c4ccccc4)CC3)nn12 | 152 to 155 °C |
| CC1CN(C)c2c(Cl)ccc3c(=O)c(C(=O)O)cn1c23 (centres undefined) | 243 to 245 °C |
| Oc1ccc(Oc2ccccc2F)cc1 | 81.5 to 82 °C |
| CCC(CC)c1nn(-c2ccc(Cl)cn2)cc1CCCOc1c(CC(=O)O)cccc1OC | 85 to 86 °C |
| CCOC(=O)c1ccc2nc3ccsc3c(=O)n2c1 | 188 to 190 °C |
| CCC(C(=O)O)c1ccccc1Br (centres undefined) | 37 to 39 °C |
| Clc1nc(Cl)c2ncn(C3CC3)c2n1 | 121 to 124 °C |
| CC(C)n1c(C=O)c(-c2ccc(F)cc2)c(-c2ccccc2)c1C(N)=O | 187 to 188 °C |
| CCCn1nc2c(N)nc3ccccc3c2c1CC(C)(C)NC(=O)CC | 158 to 159 °C |
| CCOC(=O)C(=O)Nc1ccc2cccc([N+](=O)[O-])c2c1[N+](=O)[O-] | 233 °C |
| O=[N+]([O-])c1cc(CCC(O)=S)cc(O)c1O | 91 to 93 °C |
| CCOC(=O)Cc1ccc(SCc2cc(C)ccc2C(=O)O)cc1 | 94 °C |
| O=C(c1cc(=O)c2cc(O)ccc2[nH]1)N1CCC(Cc2ccc(F)cc2)CC1 | 190 °C |
| CC(=O)c1nc2cc(Cl)c(OCC(F)(F)F)cc2cc1O | 104 to 105 °C |
| O=c1cc(-c2ccc3[nH]ncc3c2)oc2ncc(CN3CCOCC3)cc12 | 293 °C |
| COc1ccc2c(c1)C13CCCC4OC41C(C2)N(C(=O)C1CC1)CC3 (centres undefined) | 134 to 136 °C |
| CCOC(=O)Cc1ccc(-c2nc(COc3ccc(COc4nn(-c5ccccc5)cc4/C=C/c4coc(C(C)(C)C)n4)cc3OC)c(C)o2)cc1 | 126 to 129 °C |
| COc1cc(OC)c(C(=O)CCCCCl)cc1NC(=O)Nc1ccc(C(F)(F)F)cc1 | 154 to 156 °C |
| O=C(c1ccc(Cl)cc1Cl)N1CCC(=NO)c2ccc(Cl)cc21 | 231 to 232 °C |
| CCc1ccc2cc[nH]c2n1 | 117 to 120 °C |
| CCOC(=O)c1cnn(-c2ccc(OCC(C)(C)C)c(C#N)c2)c1Cl | 90 to 92 °C |
| O=C1c2ccccc2C(=O)N1OCCBr | 98 °C |
| Nc1ccccc1NC(=O)c1cc2cc(OCCN3CCOCC3)ccc2s1 | 166 to 169 °C |
| Cc1ccc(S(=O)(=O)OCC2Cc3ccc(O)cc3O2)cc1 (centres undefined) | 107 to 110 °C |
| CC(/C=C/C(=O)OC(C)(C)C)=C\c1ccc(N)cc1 | 99 to 101 °C |

| SMILES | melting point |
| --- | --- |
| CCC1(C)CCC(N)=CC1=O (centres undefined) | 99 to 100 °C |
| COc1ccc(-c2cc(O)nc(C)n2)cc1 | 270 to 272 °C |
| Cc1oc(-c2ccccc2)nc1CCOc1ccc(Cn2cc(CC(=O)O)c(-c3ccccc3)n2)cn1 | 148 to 149 °C |
| COc1cc2c(cc1Nc1ncc(Cl)c(Nc3ccc(N(C)C)cc3OC)n1)CCN(CC(=O)N1CCN(C)CC1)CC2 | 145 °C |
| CCC(CC)N1CCN(C(=O)Oc2ccc(OC)cc2)CC1 | 52 to 54 °C |
| CC12CC(Cl)C(O)CC1CCC1C2CCC2(C)C(O)C(N3CCCCC3)CC12 (centres undefined) | 232 to 234 °C |
| CCN1OCC(=O)N(c2cc(Cl)ccc2C)C1=S | 119 to 121 °C |
| Cc1nc2cc(OCc3ccccc3)c(OCc3ccccc3)cc2nc1C(=O)O | 198 to 200 °C |
| COc1cc(Cl)nc(Nc2ccccc2)n1 | 101 to 103 °C |
| CCC1(O)CC(=O)OCc2c1cc1n(c2=O)Cc2cc3cccc(F)c3nc2-1 (centres undefined) | > 250 °C |
| COCCOCc1c(CN(C)CC(O)c2cccc(OC)c2)sc2c(=O)c(C(=O)NCc3ccc(Cl)cc3)cn(C)c12 (centres undefined) | 135 to 138 °C |
| Nc1ccc(S(=O)(=O)CCCO)cc1 | 99 to 102 °C |
| CC(C)(O)Cn1c(CO)nc2c(N)nc3ccccc3c21 | 264 to 271 °C |
| COC(=O)c1cccc2c(C#N)c(OC)ccc12 | 210 to 211 °C |
| CCCCCCC1C(=O)OC2OC3(C)CCC4C(C)CCC1C24OO3 (single isomer, unassigned; (+)) | 80.5 to 82 °C |
| CS(=O)(=O)c1c[nH]c(=O)c(I)c1 | 273 to 276 °C |
| COc1ccc(OCc2ccccc2)cc1C(=O)O | 114 to 116 °C |
| Cc1oc(-c2ccco2)nc1COc1ccc(Cn2cc(CCC(=O)O)c(-c3ccccc3)n2)cc1 | 152 to 153 °C |
| C[C@H]([C@@H](C)P(=S)(c1ccccc1)c1ccccc1)P(=S)(c1ccccc1)c1ccccc1 | 213 to 214 °C |
| COc1nc(OC)nc(OC(C(=O)OCc2ccccc2)C(C)(C)C)n1 (centres undefined) | 63 to 66 °C |
| COc1cccc2c(Cl)nc(C)nc12 | 101 to 102 °C |
| CCCCCCc1ccc(C(=O)O)cc1[N+](=O)[O-] | 106 to 108 °C |
| O=C1N(Cc2ccc(C(F)(F)F)o2)c2cccc(-c3cncnc3)c2C12COc1cc3c(cc12)CCO3 (centres undefined) | 263 to 266 °C |
| Cc1cccc(C(=O)O)c1OC1CCOC1=O (centres undefined) | 129 to 131 °C |
| O=C1COCC2=C1C(c1ccc(F)c(I)c1)C1=C(CCS1(=O)=O)N2 (centres undefined) | > 260 °C |
| CCOC(=O)c1sc(SC)c2c1CCC(C(OCC)OCC)C2=O (centres undefined) | 113 to 114 °C |

| SMILES | melting point |
| --- | --- |
| CCn1cc(C(=O)O)c(=O)c2cc(F)c(N3CCCC(O)C3)c(F)c21 (centres undefined) | 232 to 234 °C |
| CCCC=C(NC(=O)c1ccccc1)C(=O)OCC | 68 to 70 °C |
| Cc1c(N2CCc3c(-c4ccccc4)cccc32)nc2ccc(F)cc2c1C(=O)O | 157 to 159 °C |
| Cc1nc(-c2cn(Cc3ccc(C(F)(F)F)cc3)nn2)sc1C(=O)NCc1ccccc1 | 131 to 132 °C |
| Cc1ccc(CSc2c(O)cc(C)oc2=O)cc1 | 134 to 135 °C |
| CCCOc1cc(C#N)ccc1C(C)=O | 99.5 to 100 °C |
| N#CCOc1cc(C(F)(F)F)nc2ccc(-c3cc4ccccc4o3)cc12 | 174 to 176 °C |
| CCc1c(OC)c(Cl)cc(C(N)=O)c1OC | 83 to 84 °C |
| O=c1cc(S)sc2cc(N3CCOCC3)ccc12 | > 250 °C |
| CCn1c(C)nc2cc(C(F)(F)F)c(OC)c([N+](=O)[O-])c21 | 84 to 85.5 °C |
| CCCc1c(OCCCSc2ccc(C(=O)CCC(=O)O)cc2)ccc(C(C)=O)c1OC(C)=O | 121 to 123 °C |
| COc1cccc(C=C2C(=O)c3ccccc3N2C(C)=O)c1[N+](=O)[O-] | 161 to 162 °C |
| CC(C)(C)OC(=O)NCCNC(=O)c1cc(Cl)ccn1 | 120 to 123 °C |
| C=CCOC(=O)NC12CC3CC(CC(C3)C1)C2 | 56 to 58 °C |
| CCCN(CCC)C(=O)Nc1nn(Cc2ccccc2)cc1C(=O)OCC | 114 to 115 °C |
| Cc1cccc2c1cc(C(=O)NCC1CCN(CC3(O)CCOCC3)CC1)c(=O)n2C(C)C | 222 °C |
| CS(=O)(=O)c1ccc(-n2nc(C(F)(F)F)cc2-c2ccc(F)cc2)cc1 | 127 to 129 °C |
| COc1ccc2nccc(CCC[C@@H]3CCN(CC#Cc4ccccc4)C[C@@H]3C(=O)O)c2c1 | 166 °C |
| Brc1cnc(Br)c2ccccc12 | 95 to 96 °C |
| C=CCO/N=C(/C(=O)O)c1ccc(OCCOc2ccc3ccccc3c2)s1 | 106 to 108 °C |
| CNC(=O)Cc1ccc(N)c(N)c1 | 136 to 138 °C |
| CN(C)CCn1cnc2cnc3ccccc3c21 | > 250 °C |
| C=CCn1c(C)nc2c(O)c(C(=O)[C@@H]3OC(C)(C)O[C@H]3c3ccccc3)ccc21 | 123 °C |
| CCOC(=O)OCCn1nc(-c2cc(C(C)(C)C)c(O)c(C(C)(C)C)c2)c2cccnc21 | 103 to 105 °C |
| CC(=O)OCCC1Cc2c(C)c(OCc3ccccc3)c(C)c(C)c2O1 (racemic) | 80 to 82 °C |
| COc1cc(OC)c2c(=O)cc(-c3ccccc3)oc2c1 | 147 to 149 °C |

| SMILES | melting point |
| --- | --- |
| Cc1cnc2[nH]cc(/C=C3\N=C(N(C)CC(C)C)NC3=O)c2c1 | 287 to 289 °C |
| COC(=O)c1coc2ccc(OCc3ccccc3)cc2c1=O | 88 to 89 °C |
| CCCCCc1ccc(CCc2ccc(-c3ccc(OC(F)F)cc3)cc2)cc1 | 121 °C |
| CSc1nnc(-c2cc3c(Oc4ccc(Cl)cc4)cncc3s2)o1 | 158 to 160 °C |
| CC(=O)CC(=O)NC(=O)C(C)C | 148 to 160 °C |
| CCc1cccc(CC(=O)O)c1OCCCc1cn(-c2ncc(C(F)(F)F)cc2Cl)nc1C(C)C | 93 to 95 °C |
| Cc1c(C(=O)N[C@@H](Cc2ccc(OCc3ccccc3)cc2)C(=O)O)oc2cc(-c3ccc(Cl)cc3)ccc12 | 143 to 144 °C |
| NC(=O)c1ccccc1N1CCc2cc(Br)ccc21 | 120 to 122 °C |
| CN1CCN(c2cc(NC(=O)OC(C)(C)C)c([N+](=O)[O-])cc2I)CC1 | 134 to 136 °C |
| O=C(Oc1ccccc1)N1C(=O)[C@H](O)[C@@H]1c1ccccc1 | 125 to 126 °C |
| Fc1cc(OCc2ccccc2)cnc1Cl | 48 to 52 °C |
| CCCCCCCCCCCCCCCC(=O)OCC(COCc1ccccc1)OC(=O)CCCCCCCCCCCCCCC (centres undefined) | 40 to 42 °C |
| C=CC(=O)OCC1(COC(=O)C=C)c2ccccc2-c2ccccc21 | 73 to 75 °C |
| CN(C)C(=O)c1c(-c2ccccc2)ccc2ccccc12 | 133 to 134 °C |
| CCOC(=O)C1=C(N)N=C(SCC)C(C(=O)OCC)C1c1cccc(C#N)c1 (centres undefined) | 153 °C |
| N#Cc1cc(F)c(-n2cnc(C(F)(F)F)cc2=O)cc1F | 95 °C |
| Nc1c(-c2ccccc2)sc2ccccc12 | 110 to 112 °C |
| OC1CSC(Oc2cncc(-c3cc4ccccc4s3)c2)C(O)C1O (centres undefined) | 235 °C |
| Nc1[nH]nc(-c2ccc(Cl)cc2)c1-c1ccncc1 | > 300 °C |
| COCc1ncnc(N2CCCCC2)c1C | 45 to 47 °C |
| CCCCCCCCCCCCCCCCNC(=O)c1cc(OCCSCC(=O)O)c2ccccc2c1O | 91 to 93 °C |
| CC(=O)Nc1cc(C(F)(F)F)ccc1N1CCOCC1 | 85 °C |
| Oc1cccc2ccc3ccccc3c12 | 114 to 116 °C |
| O=C(Nc1cccc(O)c1)C(F)(F)F | 133 to 135 °C |
| CC1=CC2C(CC1)C(c1ccc(F)cc1)=NC(=O)N2C(C)C (centres undefined) | 154 to 158 °C |
| COC(=O)Nc1nc2cc(SCC3CC3(Cl)Cl)ccc2[nH]1 (centres undefined) | 211 to 213 °C |
